Assay results taken from ChEMBL document CHEMBL1201862, “PubChem BioAssay data set” (2004).
The source made the active and inactive calls.

Tests used:
Mu-type opioid receptor = Mu-type opioid receptor (Homo sapiens, UniProt P35372); type: functional, cell-based;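 also: U2OS cells with beta-arrestin recruitment to OPRM1 by beta-gal complementation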
[1] = biological target: 5-hydroxytryptamine receptor 2A (Mus musculus, UniProt P35363); type: functional, cell-based;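 also: CHO-K1 cells with tagged receptor and beta-arrestin; agonist potency measured as compound-induced activation of the receptor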
[2] = biological target: T1, Microphthalmia-associated transcription factor (Homo sapiens, UniProt O75030); assay: reducers of TRPM1 reporter luminescence, concentration series – cell-based, SK-MEL-5, cherry-picked, set 3, MITF inhibitor project, dose response (AID 493073); type: functional;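 also: SK-MEL-5 melanoma cells with luciferase driven by the MITF target TRPM1 promoter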
T1 sequence (O75030 whole entry): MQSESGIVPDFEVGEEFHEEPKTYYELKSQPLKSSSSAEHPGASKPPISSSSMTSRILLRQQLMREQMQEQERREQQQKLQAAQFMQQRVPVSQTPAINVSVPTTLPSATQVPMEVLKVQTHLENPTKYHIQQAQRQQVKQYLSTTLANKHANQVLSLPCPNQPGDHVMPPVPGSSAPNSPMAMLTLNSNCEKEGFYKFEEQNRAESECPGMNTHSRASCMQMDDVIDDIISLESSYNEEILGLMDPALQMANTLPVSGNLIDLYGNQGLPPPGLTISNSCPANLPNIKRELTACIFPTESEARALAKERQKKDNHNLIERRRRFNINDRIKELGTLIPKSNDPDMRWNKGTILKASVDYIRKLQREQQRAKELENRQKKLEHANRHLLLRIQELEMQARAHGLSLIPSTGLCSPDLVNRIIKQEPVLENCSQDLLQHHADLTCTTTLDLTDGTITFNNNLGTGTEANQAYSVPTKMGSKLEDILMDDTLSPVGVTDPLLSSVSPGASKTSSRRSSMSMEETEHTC

[3] = viability loss in HEK293T cells – cell-based, cherry-picks, cytotoxicity control for HIV Vif inhibitor project, dose response (AID 652208); type: functional
HEK293 [4] = assay: membrane integrity loss in HEK cells – cell-based, fluorescence, cytotoxicity control for IDE activator project, dose response (AID 588440); type: functional; conditions: Homo sapiens;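 also: cytotoxicity by LDH release measuring loss of membrane integrity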
Melanocortin receptor 4 = Melanocortin receptor 4 (Homo sapiens, UniProt P32245); type: functional, cell-based;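 also: Cell-based assay with luminescence read-out, confirmatory dose-response testing for agonist activity of biased ligands at MC4R; human U2OS cells with tagged receptor and beta-arrestin; potency of agonists that increase receptor coupling to beta-arrestin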
Insulin-degrading enzyme [5] = biological target: T2, Insulin-degrading enzyme (Homo sapiens, UniProt P14735); assay: cellular IDE activation of Abeta substrate cleavage – fluorescence polarization, HEK cells, dose response (AID 588439); type: functional, cell-based
T2 sequence (P14735 whole entry): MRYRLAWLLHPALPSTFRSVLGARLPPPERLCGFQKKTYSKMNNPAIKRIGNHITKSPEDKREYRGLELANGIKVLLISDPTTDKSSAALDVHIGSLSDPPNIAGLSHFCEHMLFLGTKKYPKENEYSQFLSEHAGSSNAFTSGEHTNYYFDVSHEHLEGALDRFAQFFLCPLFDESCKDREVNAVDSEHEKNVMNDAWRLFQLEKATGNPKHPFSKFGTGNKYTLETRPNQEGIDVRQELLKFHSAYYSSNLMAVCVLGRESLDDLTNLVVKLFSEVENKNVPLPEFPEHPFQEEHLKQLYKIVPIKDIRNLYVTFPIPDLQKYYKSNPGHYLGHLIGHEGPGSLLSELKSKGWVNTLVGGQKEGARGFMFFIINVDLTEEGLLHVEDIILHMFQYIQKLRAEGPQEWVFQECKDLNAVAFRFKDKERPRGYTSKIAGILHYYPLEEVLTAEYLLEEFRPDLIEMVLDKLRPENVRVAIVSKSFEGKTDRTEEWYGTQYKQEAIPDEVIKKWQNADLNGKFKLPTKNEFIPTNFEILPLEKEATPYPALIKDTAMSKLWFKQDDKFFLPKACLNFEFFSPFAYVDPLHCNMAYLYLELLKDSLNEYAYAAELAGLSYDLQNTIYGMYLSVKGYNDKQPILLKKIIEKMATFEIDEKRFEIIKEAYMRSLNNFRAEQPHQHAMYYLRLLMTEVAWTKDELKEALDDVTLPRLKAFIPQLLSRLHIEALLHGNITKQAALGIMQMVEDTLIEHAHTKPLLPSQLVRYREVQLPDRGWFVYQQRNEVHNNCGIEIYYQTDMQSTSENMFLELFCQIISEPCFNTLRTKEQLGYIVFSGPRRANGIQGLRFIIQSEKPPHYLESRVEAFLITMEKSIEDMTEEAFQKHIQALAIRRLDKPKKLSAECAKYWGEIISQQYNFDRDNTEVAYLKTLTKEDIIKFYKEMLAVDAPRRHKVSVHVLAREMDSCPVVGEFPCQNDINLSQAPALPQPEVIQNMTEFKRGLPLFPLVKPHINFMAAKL

HEK293 [6] = assay: optical interference in Abeta FP readout, dose response, artefact control for IDE activator project, biochemical, fluorescence polarization (AID 588442); type: functional, cell-based; conditions: Homo sapiens
Insulin-degrading enzyme [7] = biological target: T2, Insulin-degrading enzyme; assay: recombinant IDE activation, cell-free – biochemical, fluorescence polarization, counter-screen for IDE activator project, dose response (AID 588681)
A-375 = assay: MITF: Counter assay: A375 proliferation Measured in Cell-Based System Using Plate Reader - 2084-03_Inhibitor_Dose_DryPowder_Activity. [Related pubchem assays (depositor defined):AID488944]; type: functional; conditions: Homo sapiens
[8] = EF1alpha-driven Renilla reporter with control 3'UTR suppression – Clone20-Shn3RL cells, dual-Glo, cherry-pick, set 2, counter-screen for Shn3 3'UTR targeting project, dose response (AID 720724); type: functional, cell-based; conditions: Dual-Go Shn3RL
[9] = reduction of Shn3 3'UTR-driven luciferase in osteoblasts – cell-based, Clone20 osteoblasts, firefly luciferase, cherry-picked, dose response (AID 624132); type: functional;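 also: firefly luciferase luminescence from reporter carrying the Shn3 3'UTR in osteoblasts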
[10] = Shn3 3'UTR reporter signal decrease – cell-based, Clone20 osteoblasts, firefly luciferase, cherry-pick, set 2, Schnurri-3 inhibitor project, dose response (AID 720490); type: functional;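 also: actives lower the luminescence signal as inhibitors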
cells [11] = conditions: HEK293
cells [12] = conditions: A549
[13] = microbe, parasite or virus in culture; type: functional; conditions: Mycobacterium tuberculosis
[14] = loss of viability in HepG2 cells – cell-based, CellTiter-Glo, cherry-picked, cytotoxicity control for Shn3 inhibitor project, dose response (AID 624134); type: functional
INS1 = assay: INS-1E survival protection against cytokine death – cell-based, luminescence, retest, dose response (AID 449756); type: functional; conditions: Rattus norvegicus;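 also: cell death triggered by IL-1 beta plus TNF-alpha plus IFN-gamma mixture; protective hits raise ATP signal compared with cytokine alone wells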
[15] = biological target: Protein disulfide-isomerase (Homo sapiens, UniProt P07237); assay: inhibition of PDI-mediated insulin reduction – biochemical, turbidity, dry powder samples, set 2, confirmation (AID 652146)
[16] = potency of ADAM10 substrate cleavage blockers – biochemical, QFRET, dose response (AID 743254);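 also: ADAM10 enzyme with the DM2 quenched FRET peptide as substrate; EDANS fluorescence gain as the protease cuts the substrate; inhibitor potency against ADAM10 proteolytic activity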
[17] = biological target: Disintegrin and metalloproteinase domain-containing protein 17 (Homo sapiens, UniProt P78536); assay: inhibition of ADAM17 substrate cleavage – biochemical, quenched FRET substrate, counter-screen for ADAM10 exosite inhibitor project, dose response (AID 743253)
[18] = non-specific 3'UTR reporter inhibition in Clone20-Shn3RL – cell-based, Renilla luciferase, cherry-picked, counter-screen for Shn3 inhibitor project, dose response (AID 624133); type: functional
[19] = reduced cellular PGC1a acetyl-lysine signal – cell-based, cherry-picked samples, dose response (AID 720514); type: functional;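 also: potency may reflect raised or lowered acetylation signal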
[20] = biological target: SWI/SNF-related matrix-associated actin-dependent regulator of chromatin subfamily A member 2 (Homo sapiens, UniProt P51531); assay: Luminescence-based cell-based high throughput dose response assay to identify activators of the function of SWI/SNF related, matrix associated, actin dependent regulator of chromatin, subfamily a, member 2 (SMARCA2, BRM).; type: functional
[21] = Counterscreen for activators of the function of SWI/SNF related, matrix associated, actin dependent regulator of chromatin, subfamily a, member 2 (SMARCA2, BRM): Luminescence-based cell-based high throughput dose response assay to identify non-selective compounds using the VP16 reporter assay.; type: functional
[22] = biological target: T3, DNA repair protein RAD52 homolog (Homo sapiens, UniProt P43351); type: functional, biochemical
T3 sequence (P43351 whole entry): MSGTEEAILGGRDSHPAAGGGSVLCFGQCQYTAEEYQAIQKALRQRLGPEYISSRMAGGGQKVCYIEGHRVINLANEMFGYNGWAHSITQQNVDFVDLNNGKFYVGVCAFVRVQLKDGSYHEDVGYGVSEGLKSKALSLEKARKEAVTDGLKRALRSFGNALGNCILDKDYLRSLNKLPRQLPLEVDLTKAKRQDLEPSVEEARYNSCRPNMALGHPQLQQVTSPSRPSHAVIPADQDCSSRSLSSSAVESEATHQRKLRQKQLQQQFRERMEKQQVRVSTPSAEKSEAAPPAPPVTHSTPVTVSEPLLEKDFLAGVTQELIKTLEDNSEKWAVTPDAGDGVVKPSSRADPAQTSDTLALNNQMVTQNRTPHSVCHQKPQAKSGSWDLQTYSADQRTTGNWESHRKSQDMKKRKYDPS

Chain of Melanocortin receptor 4 (P32245 whole entry): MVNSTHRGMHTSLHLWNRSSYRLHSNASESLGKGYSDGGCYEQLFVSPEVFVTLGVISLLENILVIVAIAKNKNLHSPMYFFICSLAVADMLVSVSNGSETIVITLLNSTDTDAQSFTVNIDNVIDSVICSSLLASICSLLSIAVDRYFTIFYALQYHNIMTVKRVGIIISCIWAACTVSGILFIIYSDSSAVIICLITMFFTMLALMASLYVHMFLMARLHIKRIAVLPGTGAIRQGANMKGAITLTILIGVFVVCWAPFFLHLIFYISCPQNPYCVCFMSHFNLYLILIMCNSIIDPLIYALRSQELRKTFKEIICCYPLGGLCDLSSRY
Chain of SWI/SNF-related matrix-associated actin-dependent regulator of chromatin subfamily A member 2 (P51531 whole entry): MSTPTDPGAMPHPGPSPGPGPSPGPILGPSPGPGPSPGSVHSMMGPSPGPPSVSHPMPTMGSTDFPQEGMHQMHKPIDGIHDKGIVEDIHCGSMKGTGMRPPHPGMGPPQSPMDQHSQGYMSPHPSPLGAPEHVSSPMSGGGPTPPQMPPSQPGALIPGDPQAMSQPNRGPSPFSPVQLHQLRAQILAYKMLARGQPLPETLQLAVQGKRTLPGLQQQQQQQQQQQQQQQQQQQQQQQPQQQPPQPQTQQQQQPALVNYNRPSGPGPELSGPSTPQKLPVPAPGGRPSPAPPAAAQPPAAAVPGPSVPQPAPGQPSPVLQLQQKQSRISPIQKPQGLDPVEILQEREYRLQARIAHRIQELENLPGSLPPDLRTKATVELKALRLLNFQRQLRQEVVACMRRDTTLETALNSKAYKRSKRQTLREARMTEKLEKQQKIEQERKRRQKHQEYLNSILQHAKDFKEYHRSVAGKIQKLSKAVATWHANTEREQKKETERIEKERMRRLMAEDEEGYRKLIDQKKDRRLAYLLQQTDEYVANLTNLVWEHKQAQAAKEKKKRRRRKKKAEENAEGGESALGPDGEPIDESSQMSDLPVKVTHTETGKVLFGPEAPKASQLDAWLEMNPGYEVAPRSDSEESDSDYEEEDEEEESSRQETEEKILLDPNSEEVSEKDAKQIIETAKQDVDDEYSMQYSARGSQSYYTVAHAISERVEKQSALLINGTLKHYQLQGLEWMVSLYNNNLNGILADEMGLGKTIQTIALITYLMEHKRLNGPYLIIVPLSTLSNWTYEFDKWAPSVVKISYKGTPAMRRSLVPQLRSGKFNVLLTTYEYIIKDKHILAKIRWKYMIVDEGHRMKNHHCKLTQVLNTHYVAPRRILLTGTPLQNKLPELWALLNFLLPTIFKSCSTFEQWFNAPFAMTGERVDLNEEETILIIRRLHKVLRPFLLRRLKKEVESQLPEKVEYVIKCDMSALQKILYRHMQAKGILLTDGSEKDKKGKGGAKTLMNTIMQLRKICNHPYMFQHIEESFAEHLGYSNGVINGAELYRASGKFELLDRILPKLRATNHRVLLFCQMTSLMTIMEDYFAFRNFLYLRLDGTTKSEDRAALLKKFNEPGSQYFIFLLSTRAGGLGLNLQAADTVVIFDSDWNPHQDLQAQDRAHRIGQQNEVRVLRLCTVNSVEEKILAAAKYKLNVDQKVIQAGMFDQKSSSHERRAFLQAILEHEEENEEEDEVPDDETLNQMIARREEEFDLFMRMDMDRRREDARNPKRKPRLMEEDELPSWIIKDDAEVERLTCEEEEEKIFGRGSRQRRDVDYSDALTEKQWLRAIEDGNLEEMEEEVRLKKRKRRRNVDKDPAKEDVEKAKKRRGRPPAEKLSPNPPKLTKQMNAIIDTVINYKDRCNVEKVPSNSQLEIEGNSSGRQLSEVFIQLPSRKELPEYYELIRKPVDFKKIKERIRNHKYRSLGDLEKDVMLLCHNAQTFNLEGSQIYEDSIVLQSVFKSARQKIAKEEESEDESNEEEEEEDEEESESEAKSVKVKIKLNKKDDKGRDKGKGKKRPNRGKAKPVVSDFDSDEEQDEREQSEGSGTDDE
Chain of Mu-type opioid receptor (P35372 whole entry): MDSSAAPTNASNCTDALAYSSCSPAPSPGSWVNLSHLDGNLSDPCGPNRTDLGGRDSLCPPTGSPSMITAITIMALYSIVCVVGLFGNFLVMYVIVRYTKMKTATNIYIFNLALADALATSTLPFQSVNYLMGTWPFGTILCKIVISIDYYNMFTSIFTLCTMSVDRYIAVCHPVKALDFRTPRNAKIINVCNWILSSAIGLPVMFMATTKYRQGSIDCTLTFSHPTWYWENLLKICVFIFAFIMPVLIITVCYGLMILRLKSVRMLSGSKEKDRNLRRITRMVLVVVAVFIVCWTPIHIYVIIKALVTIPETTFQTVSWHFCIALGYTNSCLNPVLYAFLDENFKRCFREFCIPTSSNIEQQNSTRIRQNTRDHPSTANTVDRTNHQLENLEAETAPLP
Chain of Protein disulfide-isomerase (P07237 whole entry): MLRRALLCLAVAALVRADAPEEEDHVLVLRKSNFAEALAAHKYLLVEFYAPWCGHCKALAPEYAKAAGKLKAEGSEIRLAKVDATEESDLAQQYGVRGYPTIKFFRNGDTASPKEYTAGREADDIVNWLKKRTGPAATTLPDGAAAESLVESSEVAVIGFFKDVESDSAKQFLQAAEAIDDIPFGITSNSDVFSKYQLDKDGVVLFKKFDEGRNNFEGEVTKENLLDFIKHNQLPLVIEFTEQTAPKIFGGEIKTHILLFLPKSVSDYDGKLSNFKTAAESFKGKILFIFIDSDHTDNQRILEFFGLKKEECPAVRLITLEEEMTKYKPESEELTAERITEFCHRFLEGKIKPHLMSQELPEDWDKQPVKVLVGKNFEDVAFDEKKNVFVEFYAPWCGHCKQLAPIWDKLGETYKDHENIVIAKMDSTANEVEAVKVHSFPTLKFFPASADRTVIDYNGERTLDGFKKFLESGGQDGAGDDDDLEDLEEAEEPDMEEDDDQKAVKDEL
Chain of 5-hydroxytryptamine receptor 2A (P35363 whole entry): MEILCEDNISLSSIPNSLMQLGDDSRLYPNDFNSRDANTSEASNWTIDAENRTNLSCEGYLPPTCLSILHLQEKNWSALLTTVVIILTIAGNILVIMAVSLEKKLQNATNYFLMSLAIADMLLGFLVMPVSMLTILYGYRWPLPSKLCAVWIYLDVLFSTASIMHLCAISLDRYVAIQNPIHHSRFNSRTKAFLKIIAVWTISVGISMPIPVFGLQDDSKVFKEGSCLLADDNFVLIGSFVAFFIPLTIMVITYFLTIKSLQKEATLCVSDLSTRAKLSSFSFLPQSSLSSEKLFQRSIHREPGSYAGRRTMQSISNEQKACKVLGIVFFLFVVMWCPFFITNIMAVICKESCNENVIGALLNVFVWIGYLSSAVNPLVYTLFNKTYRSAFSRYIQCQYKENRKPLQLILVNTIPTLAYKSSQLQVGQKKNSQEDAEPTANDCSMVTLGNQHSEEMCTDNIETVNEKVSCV
Chain of Disintegrin and metalloproteinase domain-containing protein 17 (P78536 whole entry, the tested form may be a part): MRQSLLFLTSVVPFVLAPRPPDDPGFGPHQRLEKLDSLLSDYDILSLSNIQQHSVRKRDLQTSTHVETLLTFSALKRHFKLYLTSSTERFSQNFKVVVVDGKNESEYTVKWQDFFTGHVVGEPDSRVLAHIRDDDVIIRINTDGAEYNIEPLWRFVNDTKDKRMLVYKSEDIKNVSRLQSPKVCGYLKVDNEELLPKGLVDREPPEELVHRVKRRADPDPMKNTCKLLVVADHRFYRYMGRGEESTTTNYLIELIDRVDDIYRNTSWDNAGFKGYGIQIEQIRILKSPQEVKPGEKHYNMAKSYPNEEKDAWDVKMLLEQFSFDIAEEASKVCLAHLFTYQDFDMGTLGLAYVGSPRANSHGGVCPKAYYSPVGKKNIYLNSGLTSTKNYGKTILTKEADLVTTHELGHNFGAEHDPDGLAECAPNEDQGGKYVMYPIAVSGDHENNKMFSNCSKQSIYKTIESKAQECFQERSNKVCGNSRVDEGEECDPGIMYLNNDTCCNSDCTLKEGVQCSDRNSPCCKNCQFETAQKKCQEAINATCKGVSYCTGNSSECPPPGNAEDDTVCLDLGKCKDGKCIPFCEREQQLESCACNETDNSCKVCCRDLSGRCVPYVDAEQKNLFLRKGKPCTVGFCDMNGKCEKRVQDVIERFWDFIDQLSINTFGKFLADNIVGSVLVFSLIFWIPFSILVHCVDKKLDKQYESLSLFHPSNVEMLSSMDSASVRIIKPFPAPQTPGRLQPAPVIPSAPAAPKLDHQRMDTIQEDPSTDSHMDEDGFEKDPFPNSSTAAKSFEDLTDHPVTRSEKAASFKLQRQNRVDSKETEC

In the case of CCOC(=O)C1=CCN(Cc2ccccc2)CC1, the EC50 (Mu-type opioid receptor) is reported as 92.5 µM (inactive) and the EC50 [1] is reported as 5.35 µM (active).

For Cc1cc(NC(=O)c2cncc(Br)c2)ccc1NC(=O)c1cc2ccccc2o1, the AC50 [2] was 10.4 µM (active), the AC50 [3] was 15.4 µM (active) and the IC50 (HEK293 [4]) was 5.63 µM (active). For the same compound, the EC50 (Melanocortin receptor 4) was > 89.2 µM (inactive), the EC50 (Insulin-degrading enzyme [5]) was > 54.7 µM (inactive) and the EC50 (HEK293 [6]) was > 55.9 µM (inactive). For the same compound, the EC50 (Insulin-degrading enzyme [7]) was > 54.7 µM (inactive) and the AC50 (A-375) was 26.2 µM (active).

In the case of Cc1nc2scc(C)n2c(=O)c1S(=O)(=O)Nc1ccc(N2CCOCC2)c(Cl)c1, the AC50 [8] is reported as 38.3 µM (active), the AC50 [9] is reported as 1.67 µM (active) and the AC50 [10] is reported as 2.04 µM (active).

In the case of N=c1oc2cc(O)ccc2cc1C(=O)Nc1ccc(Br)cc1, the AC50 (cells [11]) is reported as > 52 µM (inactive), the AC50 (cells [12]) is reported as > 52 µM (inactive) and the CC50 [13] is reported as 23.7 µM (active).

For COc1ccc(OC)c(NC(=O)CN(Cc2ccc(F)cc2)C2CCCCC2)c1, the AC50 [8] was 34.6 µM (active), the AC50 [14] was 50.8 µM (active) and the AC50 [9] was 4.99 µM (active). The AC50 (INS1) was 4.33 µM (active) and the AC50 [10] was 6.54 µM (active).

With CCOC(=O)C1(CCOc2ccccc2)CCN(Cc2ccc(OC)cc2)CC1 the AC50 [15] was > 30 µM (inactive).

With C=CCC[C@@H](Cc1ccc(F)cc1)C(=O)O[C@H](CNC(=O)[C@H](CC=C)CC(=O)N(CCO)Cc1ccccc1)c1ccccc1 the IC50 [16] was 12.2 µM (inactive) and the IC50 [17] was > 69.5 µM (inactive).

With COc1cc(NC(=O)NCc2ccco2)ccc1-c1ccc(NC(=O)NCc2ccco2)cc1OC the AC50 [18] was 10.3 µM (active), the AC50 [19] was 14 µM (active) and the AC50 [3] was > 52 µM (inactive). The AC50 [14] was > 70 µM (inactive) and the AC50 [9] was 3.19 µM (active).

With CN(C)CCNC(=O)c1cccc(-c2cc(NC=O)c3ncc(-c4cccc(C(F)(F)F)c4)n3c2)c1 the EC50 (Melanocortin receptor 4) was > 89.2 µM (inactive), the EC50 [20] was > 91.2 µM (inactive) and the EC50 [21] was > 91.2 µM (inactive). The AC50 [22] was 4.34 µM (active).
